# Test system: Huh7 subcutaneous xenografts
# Experiment: subcutaneous Huh7 xenograft with intratumoral doxorubicin-eluting beads
# Assay type: in vivo, CD-1 nude mice
# Procedure: DC M1 beads were loaded with doxorubicin at 25 mg/mL as described in Supplemental Methods. Huh7 cells (5 × 10^6 cells per mouse in 50 μL, 50% vol/vol Matrigel) were implanted s.c. into the right flank of female CD-1 nude mice to generate subcutaneous Huh7 xenografts (180–220 mm^3). Mice were then treated with 5 μL doxorubicin-loaded or unloaded beads suspended in 30 μL saline administered via an intratumoral injection along the length of each tumor using a 29G needle. One hour after bead implantation, twice-daily dosing with 30 mg/kg NU5455 or vehicle control (1% vol/vol acetic acid in water) was commenced via oral gavage (9-hour dosing interval) and continued for up to 20 days. Tumor volumes were calculated daily using bilateral caliper measurements as described in Supplemental Methods, and body weight measurements taken daily throughout treatment. […]
# γH2AX immunohistochemistry in HCC tumor xenografts
# FFPE tumor sections (4 µm) were dewaxed in xylene and hydrated in descending concentrations of ethanol. Endogenous tissue peroxidase activity was quenched using 3% v/v hydrogen peroxide. Antigen retrieval was performed using 1 mM EDTA, pH 8.0 in a microwave (Kenwood). Tissue sections were blocked for avidin and biotin using the […]
# Avidin/Biotin Blocking Kit (Vector Laboratories), and washed in TBST be tween all subsequent steps. Slides were blocked in 20% v/v pig serum in DI water, and sections incubated with an antibody against γH2AX ( 20E3, Cell Signaling Technology #9718, 1 in 200 in TBST) in a humidified container at 4°C overnight.
# Sections were th en incubated with polyclonal swine anti -rabbit IgG, biotinylated (Dako #E0353, 1 in 200 in TBST), followed by VectaStain RTU Elite ABC reagent (Vector Laboratories). Slides were stained using DAB Peroxidase Substrate Kit (Vector Laboratories) prepared according to the manufacturer’s instructions. Slides were washed in DI water, then counterstained in filtered haematoxylin s olution. Background staining was minimized by exposure to acid alcohol solution (1% v/v hydrochloric acid in 70% v/v ethanol, Fisher), and staining blued by incubation in Scott’s tap water. Stained slides were then dehydrated in ascending concentrations of ethanol, followed by clearing in xylene. Glass coverslips (Dako) were mounted onto slides using DPX mounting medium. pDNA-PKcs Ser2056 immunohistochemistry in HCC tumor xenografts
# Tumor sections were dewaxed in xylene, hydrated, and endogenous peroxidase activity quenched as detailed above. Antigen retrieval was performed in 1X citrate buffer (10 mM citric acid (Acros), pH 6.0 + 0.5% v/v Tween 20), using a decloaker (A. Menarini Diagnostics).
# Tissue sections were blocked in 1% w/v BSA and 1% v/v normal go at serum in PBS (1 hour, RT). Sections were then incubated at 4°C overnight in a humidified container with an antibody against pDNA -PKcs Ser2056 (Abcam #18192, 1:1000 in 1% w/v BSA and 1% v/v […]
# Sections were washed with TBST before incuba tion with EnVision+ anti -rabbit Polymer-HRP solution (Dako #K4002). Slides were washed in TBST , and antibody conjugates visualized by incubation with ImmPACT DAB peroxidase substrate working solution. […]
# IHC slides were digitized via conversion using the Aperio ScanScope CS Brightfield scanner (Leica Biosystems) at x20 zoom. Percentage hepatocyte nuclear positivity for pDNA -PKcs Ser2056 and γH2AX was determined using a nuclear algorithm generated with the Aperio ImageScope software v11.2.0.780 (Leica Biosystems). […]
compound,measurement,setting,value
CN(C(=O)CN1CCOCC1)c1ccc2sc3c(-c4cccc5c(=O)cc(N6CC7CCC(C6)O7)oc45)cccc3c2c1 [NU5455],DNA-PKcs phosphorylation (Ser2056) in tumors,"72 hours of treatment, doxorubicin-loaded beads, immunohistochemistry",reduced by NU5455 treatment
same,DNA damage (γH2AX) in area surrounding doxorubicin-eluting beads,"72 hours, immunohistochemistry",significantly augmented
same,"mean RTV4 value, monotherapy","NU5455 30 mg/kg b.i.d. with unloaded beads, or doxorubicin beads with vehicle",10.6 days
same,body weight or clinical condition versus vehicle alone,NU5455 30 mg/kg oral b.i.d. + doxorubicin-eluting beads,no additional impact
same,"mean RTV4 value, combination",NU5455 30 mg/kg oral b.i.d. + intratumoral doxorubicin-eluting beads,17.8 days
